Source: ChEMBL document CHEMBL1151254, “A new anti-HIV alkaloid, drymaritin, and a new C-glycoside flavonoid, diandraflavone, from Drymaria diandra” (J Nat Prod, 2004)
Converted amounts (≈) assume the structure as drawn.

Legend:
Neutrophil = assay: Inhibition of fMLP/CB-stimulated superoxide anion generation in human neutrophils; assay type: functional, cell-based
[1] = tested on: Human immunodeficiency virus; assay: Antiviral activity against HIV in human H9 cells; assay type: functional, organism-based; conditions: Human immunodeficiency virus 1, H9

SMILES	IC50 (Neutrophil) [µg/mL]	EC50 [1] [µg/mL]
COc1cc2oc(-c3ccc([C@@H]4O[C@H](CO)[C@@H](O)[C@H](O)[C@H]4O)cc3)cc(=O)c2c(O)c1[C@H]1C[C@@H](O)[C@@H](O)[C@@H](C)O1 [DIANDRAFLAVONE A]	10 (≈ 17.8 µM)	
COc1cnc2ccc(=O)n3c4ccccc4c1c23		20.6 (≈ 82.3 µM)
COc1cn2c3ccccc3c3ccnc(c1=O)c32 [DRYMARITIN]		0.699 (≈ 2.79 µM)
